Earlier results as cited in patent US11865247B2, “Inhalers and related methods” (Norton (Waterford) Limited, priority 2017, dated 2024).

- surface tension (as liquid at 25° C.): about 8 mN/m
- vapor pressure (at 20° C.): 572 kpa
SMILES: FCC(F)(F)F [HFA134a, 1,1,1,2-tetrafluoroethane]
